According to patent US10167299B2, “1-(3-aminopropyl) substituted cyclic amine compounds, preparation method therefor, and pharmaceutical compositions and uses thereof” (SHANGHAI INSTITUTE OF MATERIA MEDICA, CHINESE ACADEMY OF …, priority 2013, dated 2019):
Values after ≈ are worked out from the molar mass of the structure shown. Like-named read-outs stand apart in the source and are kept apart here.

What was measured:
CCR5 = CCR5 (Homo sapiens (Human), UniProt P51681); test: Calcium flux inhibition experiment; type: cell-based; settings: for calcium influx inhibition effect in words, versus positive control compounds: conclusion from Table 1
From the text: Experiment apparatus: FlexStation II
Experiment materials: HEK293/CCR5-Gα16 cell line, Fluo-4calcium dye (fluorescent-4 calcium ion dye) and FlexStation instrument.
Experiment theory: Activation of the receptor can cause the activation of Gα16 protein, thereby activating phospholipase C (PLC) to generate IP3 and DAG by establishing CCR5 and Ga16 co-transfected cell line. IP3 can bind to IP3 receptors on the endoplasmic reticulum and mitochondria in a cell, which can cause the release of intracellular calcium. Thus, determination of changes in intracellular calcium can be used as a method to detect CCR5 activation state. Fluo-4/AM is a fluorescent probe indicator for calcium used to measure calcium ion. As a non-polar lipid-soluble compound, after it enters into cells, AM group is dissociated to release Fluo-4 under the effect of cell lipolysis enzyme. Fluo-4 is a polar molecule and not easy to go through the lipid bilayer membrane, therefore it can stay within the cells for a long time. Ultimately, the level of activated Ga protein can be reflected by measuring the excited fluorescence intensity. If the screened compound can activate CCR5, it can greatly increase the calcium flux reaction; on the contrary, if the screened compound can antagonize CCR5, it can greatly reduce calcium flux reaction.
1. HEK293 cells which can stably express CCR5 were inoculated in a 96-well plate and incubated overnight.
2. The medium in each well into which cells were innoculated was removed and 40 μl/well of freshly prepared dye was added. The plate was placed in a 37° C. incubator and incubated for 40 minutes at constant temperature.
3. The medicament to be determined was diluted with calcium buffer to eight concentration gradients, which is 1×10^−4 M, 1×10^−5 M, 1×10^−6 M, 1×10^−7 M, 1×10^−8 M, 1×10^−9 M, 1×10^−10 M, and 1×10^−11 M, respectively, and homogeneously mixed.
4. The dye was removed. Freshly prepared calcium buffer was used to wash for one time, 50 μl of calcium buffer was added.
5. FlexStation II was used for detection. 25 μl of calcium buffer containing the medicament to be determined was added automatically from the 15th second.

HIV-1SF162 virus strain = test: Inhibition activity on TZM-bl cells infected with HIV-1SF162; settings: for EC50: Human immunodeficiency virus 1, TZM-bl; for therapeutic index (TI): TZM-bl cells infected with HIV-1SF162
[1] = Cytotoxicity (CC50) in TZM-bl cells; type: cell-based; settings: human
[2] = HEK293/CCR5-Gα16 cell line, calcium flux, read-out: CCR5 IC50
[3] = TZM-bl cells (Table 3), read-out: CC50

Chain of CCR5 (P51681 whole entry): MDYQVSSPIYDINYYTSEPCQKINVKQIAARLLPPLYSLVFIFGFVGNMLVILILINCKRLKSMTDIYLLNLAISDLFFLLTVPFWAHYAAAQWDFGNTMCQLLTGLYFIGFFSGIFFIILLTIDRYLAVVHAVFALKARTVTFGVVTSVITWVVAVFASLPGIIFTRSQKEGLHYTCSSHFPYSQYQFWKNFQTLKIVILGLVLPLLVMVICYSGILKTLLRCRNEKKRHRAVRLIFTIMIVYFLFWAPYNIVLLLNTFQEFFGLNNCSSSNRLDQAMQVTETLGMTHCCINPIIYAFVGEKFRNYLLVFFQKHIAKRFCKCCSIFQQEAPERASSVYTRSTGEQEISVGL

In the case of `CC(=O)N[C@@H](CCN1C2CCC1CC(n1c(C)nc3c1CCN(C(C)=O)C3)C2)c1ccc(F)s1` (stereo partly drawn) [Compound 131, N-{(1S)-3-[(3-endo)-3-(5-acetyl-2-methyl-4,5,6,7-tetrahydro-1H-imidazo[4,5-c]pyridin-1-yl)-8-azabicyclo[3.2.1]octane-8-yl]-1-(5-fluorothiophen-2-yl)-propyl}acetamide], the IC50 (CCR5; [2]) is reported as 6.57 nM, the “calcium influx inhibition effect in words, versus positive control compounds” value (CCR5) is reported as “better than the positive control compounds” and the EC50 (HIV-1SF162 virus strain) is reported as 0.098 µg/mL (≈ 0.201 µM). The “therapeutic index (TI)” value (HIV-1SF162 virus strain) was greater than 1302.27 and the CC50 [1, 3] was greater than 200 µg/mL.
With `Cc1ccc([C@H](CCN2C3CCC2CC(n2c(C)nnc2C(C)C)C3)NC(=O)Cc2ccc(F)cc2)s1` (stereo partly drawn) [Compound 33, 4-fluoro-N-[(1S)-3-[exo-3-(3-isopropyl-5-methyl-4H-1,2,4-triazol-4-yl)-8-azabicyclo[3.2.1]octane-8-yl]-1-(5-methylthiophen-2-yl)propyl]phenylacetamide] the IC50 (CCR5; [2]) was 25 nM, the EC50 (HIV-1SF162 virus strain) was 0.147 µg/mL (≈ 0.281 µM) and the “therapeutic index (TI)” value (HIV-1SF162 virus strain) was greater than 328.95. For the same compound, the CC50 [1] was greater than 200 µg/mL.
With `CC(=O)N[C@@H](CCN1C2CCC1CC(n1c(C)nc3c1CCN(C(C)=O)C3)C2)c1nccs1` (stereo partly drawn) [Compound 118, N-{(1S)-3-[(3-endo)-3-(5-acetyl-2-methyl-4,5,6,7-tetrahydro-1H-imidazo[4,5-c]pyridin-1-yl)-8-azabicyclo[3.2.1]octane-8-yl]-1-(thiazol-2-yl)-propyl}acetamide] the IC50 (CCR5; [2]) was 16.9 nM, the EC50 (HIV-1SF162 virus strain) was 0.669 µg/mL (≈ 1.42 µM) and the “therapeutic index (TI)” value (HIV-1SF162 virus strain) was greater than 168.03. The CC50 [1, 3] was greater than 200 µg/mL.
With `CC(=O)N[C@@H](CCN1C2CCC1CC(n1c(C)nnc1C(C)C)C2)c1csc2ccccc12` (stereo partly drawn) [Compound 28, N-[(1S)-3-[exo-3-(3-isopropyl-5-methyl-4H-1,2,4-triazol-4-yl)-8-azabicyclo[3.2.1]octane-8-yl]-1-(benzothiophen-3-yl)propyl]acetamide] the EC50 (HIV-1SF162 virus strain) was greater than 40 µg/mL and the CC50 at 3 days [1, 3] was greater than 200 µg/mL.
For `Cc1nnc(C(C)C)n1C1CC2CCC(C1)N2CC[C@H](NC(=O)C1CCC(F)(F)CC1)c1ccc(F)s1` (stereo partly drawn) [Compound 37, 4,4-difluoro-N-[(1S)-3-[exo-3-(3-isopropyl-5-methyl-4H-1,2,4-triazol-4-yl)-8-azabicyclo[3.2.1]octane-8-yl]-1-(5-fluorothiophen-2-yl)propyl]cyclohexane-1-carboxamide], the EC50 (HIV-1SF162 virus strain) was 0.647 µg/mL (≈ 1.2 µM), the “therapeutic index (TI)” value (HIV-1SF162 virus strain) was greater than 309.12 and the CC50 at 3 days [1] was greater than 200 µg/mL.
Work on `Cc1nnc(C(C)C)n1C1CC2CCC(C1)N2CC[C@H](NC(=O)C1CCCCC1)c1ccc(Cl)s1` (stereo partly drawn) [Compound 113, N-[(1S)-3-[exo-3-(3-isopropyl-5-methyl-4H-1,2,4-triazol-4-yl)-8-azabicyclo[3.2.1]octane-8-yl]-1-(5-chlorothiophen-2-yl)propyl]cyclohexane-1-carboxamide] yielded an IC50 (CCR5; [2]) of 8.14 nM.
In the case of `CC(=O)N1CCc2c(nc(C)n2C2CC3CCC(C2)N3CC[C@H](NC(=O)C2CCC(F)(F)CC2)c2ccsc2)C1` (stereo partly drawn) [Compound 42, 4,4-difluoro-N-{(1S)-1-(thiophen-3-yl)-3-[(3-endo)-3-(5-acetyl-2-methyl-4,5,6,7-tetrahydro-1H-imidazo[4,5-c]pyridin-1-yl)-8-azabicyclo[3.2.1]octane-8-yl]propyl}cyclohexane-1-carboxamide], the IC50 (CCR5; [2]) is reported as 15.9 nM.
With `CNC(=O)c1ccc([C@H](CCN2C3CCC2CC(n2c(C)nnc2C(C)C)C3)NC(=O)C2CCCCC2)s1` (stereo partly drawn) [Compound 141, 5-[(1S)-1-(cyclohexaneformamido)-3-[exo-3-(3-isopropyl-5-methyl-4H-1,2,4-triazol-4-yl)-8-azabicyclo[3.2.1]octane-8-yl]-propyl]-N-methylthiophene-2carboxamide] the IC50 (CCR5; [2]) was 8.36 nM and the “calcium influx inhibition effect in words, versus positive control compounds” value (CCR5) was “comparable to the positive control compounds”.
In the case of `CC(=O)N[C@@H](CCN1C2CCC1CC(n1c(C)nc3c1CCN(C(=O)C(C)C)C3)C2)c1ccc(C#N)s1` (stereo partly drawn) [Compound 143, N-{(1S)-3-[(3-endo)-3-(5-isobutyryl-2-methyl-4,5,6,7-tetrahydro-1H-imidazo[4,5-c]pyridin-1-yl)-8-azabicyclo[3.2.1]octane-8-yl]-1-(5-cyanothiophen-2-yl)-propyl}acetamide], the IC50 (CCR5; [2]) is reported as 13.9 nM.
For `Cc1ccc([C@H](CCN2C3CCC2CC(n2c(C)nnc2C(C)C)C3)NC(=O)C2CCN(S(C)(=O)=O)CC2)s1` (some centres unmarked) [Compound 147], the IC50 (CCR5; [2]) was 2.48 nM and the “calcium influx inhibition effect in words, versus positive control compounds” value (CCR5) was “better than the positive control compounds”.
For `CCc1ccc([C@H](CCN2C3CCC2CC(n2c(C)nnc2C(C)C)C3)NC(=O)C2CCCCC2)s1` (stereo partly drawn) [Compound 65, N-[(1S)-3-[exo-3-(3-isopropyl-5-methyl-4H-1,2,4-triazol-4-yl)-8-azabicyclo[3.2.1]octane-8-yl]-1-(5-ethylthiophen-2-yl)propyl]cyclohexane-1-carboxamide], the IC50 (CCR5; [2]) was 1.62 nM and the “calcium influx inhibition effect in words, versus positive control compounds” value (CCR5) was “better than the positive control compounds”.
In the case of `CC(=O)N[C@@H](CCN1C2CCC1CC(n1c(C)nc3c1CCN(C(C)=O)C3)C2)c1ccc(C#N)s1` (stereo partly drawn) [Compound 144, N-{(1S)-3-[(3-endo)-3-(5-acetyl-2-methyl-4,5,6,7-tetrahydro-1H-imidazo[4,5-c]pyridin-1-yl)-8-azabicyclo[3.2.1]octane-8-yl]-1-(5-cyanothiophen-2-yl)-propyl}acetamide], the IC50 (CCR5; [2]) is reported as 8.53 nM.
With `Cc1nnc(C(C)C)n1C1CC2CCC(C1)N2CC[C@H](NC(=O)C1CCCCC1)c1nccs1` (stereo partly drawn) [Compound 116, N-[(1S)-3-[exo-3-(3-isopropyl-5-methyl-4H-1,2,4-triazol-4-yl)-8-azabicyclo[3.2.1]octane-8-yl]-1-(thiazol-2-yl)propyl]cyclohexane-1-carboxamide] the IC50 (CCR5; [2]) was 15.6 nM.
With `Cc1nnc(C(C)C)n1C1CC2CCC(C1)N2CC[C@H](NC(=O)Cc1nnn[nH]1)c1ccc(Cl)s1` (stereo partly drawn) [Compound 162, N-[(1S)-3-[exo-3-(3-isopropyl-5-methyl-4H-1,2,4-triazol-4-yl)-8-azabicyclo[3.2.1]octane-8-yl]-1-(5-chlorothiophen-2-yl)propyl]-2-(1H-tetrazol-5-yl)acetamide] the IC50 (CCR5; [2]) was 1.85 nM and the “calcium influx inhibition effect in words, versus positive control compounds” value (CCR5) was “better than the positive control compounds”.
With `COC(=O)c1ccc([C@H](CCN2C3CCC2CC(n2c(C)nnc2C(C)C)C3)NC(=O)C2CCC(F)(F)CC2)s1` (stereo partly drawn) [Compound 73, 4,4-difluoro-N-[(1S)-3-[exo-3-(3-isopropyl-5-methyl-4H-1,2,4-triazol-4-yl)-8-azabicyclo[3.2.1]octane-8-yl]-1-(5-methoxycarbonylthiophen-2-yl)propyl]cyclohexane-1-carboxamide] the IC50 (CCR5) was 8.23 nM.
Compound `Cc1nnc(C(C)C)n1C1CC2CCC(C1)N2CC[C@H](NC(=O)C1CCCC1)c1ccc(Cl)s1` (stereo partly drawn) [Compound 114, N-[(1S)-3-[exo-3-(3-isopropyl-5-methyl-4H-1,2,4-triazol-4-yl)-8-azabicyclo[3.2.1]octane-8-yl]-1-(5-chlorothiophen-2-yl)propyl]cyclopentane-1-carboxamide] has an IC50 (CCR5; [2]) of 9.27 nM.
Work on `COC(=O)c1ccc([C@H](CCN2C3CCC2CC(n2c(C)nnc2C(C)C)C3)NC(=O)C2CCC(F)(F)CC2)s1` (stereo partly drawn) [Compound 88, 4,4-difluoro-N-[(1S)-3-[exo-3-(3-isopropyl-5-methyl-4H-1,2,4-triazol-4-yl)-8-azabicyclo[3.2.1]octane-8-yl]-1-(5-methoxycarbonylthiophen-2-yl)propyl]cyclohexane-1-carboxamide] yielded an IC50 (CCR5; [2]) of 9.26 nM.
With `COc1ccc([C@H](CCN2C3CCC2CC(n2c(C)nnc2C(C)C)C3)NC(=O)Cn2ncnn2)s1` (some centres unmarked) [Compound 154] the IC50 (CCR5) was 23.1 nM.
With `Cc1nnc(C(C)C)n1C1CC2CCC(C1)N2CC[C@H](NC(=O)C1CCN(S(C)(=O)=O)CC1)c1ccc(Cl)s1` (stereo partly drawn) [Compound 150, N-[(1S)-3-[exo-3-(3-isopropyl-5-methyl-4H-1,2,4-triazol-4-yl)-8-azabicyclo[3.2.1]octane-8-yl]-1-(5-chlorothiophen-2-yl)propyl]-1-methylsulfonylpiperidine-4-carboxamide] the IC50 (CCR5; [2]) was 2.22 nM and the “calcium influx inhibition effect in words, versus positive control compounds” value (CCR5) was “better than the positive control compounds”.
For `Cc1nnc(C(C)C)n1C1CC2CCC(C1)N2CC[C@H](NC(=O)C1CCC(F)(F)CC1)c1csc2ccccc12` (stereo partly drawn) [Compound 27, 4,4-difluoro-N-[(1S)-3-[exo-3-(3-isopropyl-5-methyl-4H-1,2,4-triazol-4-yl)-8-azabicyclo[3.2.1]octane-8-yl]-1-(benzothiophen-3-yl)propyl]cyclohexane-1-carboxamide], the EC50 (HIV-1SF162 virus strain) was 0.511 µg/mL (≈ 0.897 µM), the “therapeutic index (TI)” value (HIV-1SF162 virus strain) was 188.14 and the CC50 at 3 days [1] was 96.1 µg/mL (≈ 169 µM).
For `Cc1nnc(C(C)C)n1C1CC2CCC(C1)N2CC[C@H](NC(=O)CC#N)c1ccc(C#N)s1` (stereo partly drawn) [Compound 167, N-[(1S)-3-[exo-3-(3-isopropyl-5-methyl-4H-1,2,4-triazol-4-yl)-8-azabicyclo[3.2.1]octane-8-yl]-1-(5-cyanothiophen-2-yl)propyl]-2-cyanoacetamide], the IC50 (CCR5) was 7.98 nM.
